In assay [1] the target is T1, PVA-nitrate immobilized laccase (Cyathus bulleri, UniProt A8W7J6).
T1 sequence (A8W7J6 17-513): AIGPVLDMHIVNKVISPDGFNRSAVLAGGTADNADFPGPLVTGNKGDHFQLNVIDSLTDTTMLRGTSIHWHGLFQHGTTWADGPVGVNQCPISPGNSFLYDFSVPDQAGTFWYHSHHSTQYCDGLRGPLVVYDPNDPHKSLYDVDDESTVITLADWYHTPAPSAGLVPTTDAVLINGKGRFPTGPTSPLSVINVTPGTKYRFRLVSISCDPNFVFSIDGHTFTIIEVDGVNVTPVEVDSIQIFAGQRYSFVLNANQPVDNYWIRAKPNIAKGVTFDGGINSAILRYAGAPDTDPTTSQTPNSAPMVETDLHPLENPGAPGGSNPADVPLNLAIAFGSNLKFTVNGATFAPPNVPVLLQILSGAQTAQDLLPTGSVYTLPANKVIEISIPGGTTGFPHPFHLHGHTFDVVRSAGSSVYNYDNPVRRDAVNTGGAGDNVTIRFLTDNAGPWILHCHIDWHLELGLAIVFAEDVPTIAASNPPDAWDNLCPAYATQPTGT
Description: Laccase assay with inhibitors and ABTS kinetics, immobilized enzyme. The class given is biochemical. The settings on record: 1 h pre-incubation.

A further assay deals with T2, Free laccase (Cyathus bulleri, UniProt A8W7J6).
T2 sequence (A8W7J6 17-513): T1 sequence (A8W7J6 17-513)
Description: Laccase assay with inhibitors and ABTS kinetics, free enzyme. The class given is biochemical. The note with it: 1 h pre-incubation.

Take `[N-]=[N+]=[N-]` [sodium azide]: the values for the IC50 (in assay [1]; on Free laccase) were 6 ± 0.3 µM and 5 ± 0.5 µM, respectively.
